# Experimental data published in PMC5045423, “X66, a novel N-terminal heat shock protein 90 inhibitor, exerts antitumor effects without induction of heat shock response” (Oncotarget, 2016).
# Experiments:
# HSP90α [1] = target: T1, HSP90α (Homo sapiens, UniProt P07900); test: streptavidin pull-down of purified full-length HSP90α and NTD, competed by excess soluble X66; type: binding; design: gene HSP90AA1; recombinant human full-length protein and its N-terminal fragment, but not the C-terminal fragment
# HSP90α [2] = target: T1, HSP90α; test: SPR (BIAcore […], immobilized full-length HSP90α); also competes with Biotin-X66 for the N-terminal domain in pull-down; type: binding; design: gene HSP90AA1; recombinant human full-length HSP90α
SMILES,"streptavidin pull-down of purified full-length HSP90α and NTD, competed by exces (HSP90α [1])",Kd (HSP90α [2]) [µM]
Cc1cc(C)n(-c2nc(NN=Cc3cn(C(=O)CCCC[C@@H]4SC[C@@H]5NC(=O)N[C@@H]54)c4ccccc34)nc(Nc3ccc(Br)cc3)n2)n1 [Biotin-X66],"Biotin-X66 was able to isolate the recombinant human full-length protein and its N-terminal fragment, but not the C-terminal fragment",–
"Cc1cc(C)n(-c2nc(NN=Cc3c[nH]c4ccccc34)nc(Nc3ccc(Br)cc3)n2)n1 [X66, 4-(2-((1H-indol-3-yl)methylene)hydrazinyl)-N-(4-bromophenyl)-6-(3,5-dimethyl-1H -pyrazol-1-yl)-1,3,5-triazin-2-amine]",–,5.3
